{
  "source": "PubChem BioAssay (NCI)",
  "note": "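Cells were grown in 96-well plates and exposed to each compound for 48 hours at five concentrations; endpoints were interpolated linearly between bracketing concentrations, or set to the highest concentration if not reached. GI50 marks 50% less growth. TGI: concentration producing complete growth inhibition.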",
  "data": [
    {"tested_on": "K-562 leukemia", "test": "DTP human tumour cell line panel, 48 h", "units": {"TGI": "µM"}, "values": [
      {"smiles": "Cc1c2c(C(N)=O)nccc2c(C)c2c1c1ccccc1n2Cc1ccccc1", "TGI": 45.7}
    ]},
    {"tested_on": "BT-549 breast", "test": "DTP human tumour cell line panel, 48 h", "units": {"GI50": "µM", "TGI": "µM"}, "values": [
      {"smiles": "COc1ccc(-c2nn(-c3cccc(Cl)c3)cc2-c2nc(N)[nH]c(=O)c2C#N)cc1", "GI50": 3.54, "TGI": 22.4},
      {"smiles": "COc1cc2c3c(n(CCCN(CCO)CCO)c(=O)c2cc1OC)-c1cc2c(cc1C3=O)OCO2", "GI50": 0.586, "TGI": 13.6},
      {"smiles": "CNCCn1c(=O)c2cc(OC)c(OC)cc2c2cnc3cc4c(cc3c21)OCO4", "GI50": 0.0309, "TGI": 1.79},
      {"smiles": "O=C(CCN1CCOCC1)Nc1cccc(-n2cc(-c3ccncc3)c(-c3ccc(Cl)c(O)c3)n2)c1", "GI50": 4.12, "TGI": 18.1},
      {"smiles": "C=C(C)[C@@H]1CC[C@]2(C)[C@H](CC[C@@H]3[C@@H]([C@@](C)(O)CCC=C(C)C)CC[C@]32C)[C@@]1(C)CCC(=O)O", "GI50": 16.8, "TGI": 35.8},
      {"smiles": "c1ccc(NCCSc2nc3ccccc3s2)cc1", "TGI": "> 100"},
      {"smiles": "Oc1ccc(Oc2cnc3ccccc3n2)cc1", "GI50": 12.3, "TGI": 57.5},
      {"smiles": "Cc1ccc2occ/c(=N\\Nc3ccccc3)c2c1", "TGI": "> 100"},
      {"smiles": "CC(=O)NC1CONC1=O", "note": "(stereo not given)", "TGI": "> 100"},
      {"smiles": "Oc1ccc(N=Nc2nccs2)c(O)c1", "GI50": 16.1, "TGI": 57.6},
      {"smiles": "COc1ccc2c(c1)C(C)Cc1c(ncnc1-n1cnc3ccccc31)N2C", "note": "(stereo not given)", "GI50": 0.47, "TGI": 10.3},
      {"smiles": "COc1ccc(-c2noc(N)c2-c2cc(OC)c3c(c2)OCO3)cc1", "GI50": 3.01, "TGI": 61.9},
      {"smiles": "NCCCn1c2c(c3ccccc3c1=O)C(=O)c1ccccc1-2", "GI50": 1.47, "TGI": 12.4},
      {"smiles": "O=C1c2ccccc2C(=O)c2c(NCCN=Cc3ccccc3O)cccc21", "GI50": 2.81, "TGI": 8.51},
      {"smiles": "Oc1ccc(/C=C/c2cc(O)cc3c2C(c2cc(O)cc(O)c2)C(c2ccc(O)c(O)c2)O3)cc1", "note": "(stereo not given)", "TGI": 64.4},
      {"smiles": "CC1(C)N=C(N)N=C(N)N1c1cccc(OCCOc2cccc([N+](=O)[O-])c2)c1", "GI50": 7.18, "TGI": "> 100"},
      {"smiles": "O=C(NC1CCCCC1)c1ccc(Nc2ncnc3c2cnn3-c2ccccc2)cc1", "GI50": 5.69, "TGI": 26.4},
      {"smiles": "CCc1nc(Cl)c(Cl)c(Cl)n1", "TGI": "> 100"},
      {"smiles": "O=[N+]([O-])c1ccc(Sc2c3ccccc3nc3ccccc23)cn1", "TGI": 28.8},
      {"smiles": "C=CCn1c(SCC(=O)Nc2ccc(C(=O)/C=C/c3cc(OC)c(OC)c(OC)c3)cc2)nnc1-c1ccc(OC)cc1", "GI50": 0.209, "TGI": 0.546},
      {"smiles": "Clc1nc(Cl)c2ncn(Cc3ccccc3Cn3cnc4c(Cl)nc(Cl)nc43)c2n1", "GI50": 0.165, "TGI": 1.52},
      {"smiles": "COc1ccc(-c2ccc(NNC(=O)c3ccc(F)cc3)nn2)cc1OC", "GI50": 22.9, "TGI": "> 100"},
      {"smiles": "O=C(N/N=C/c1ccc(O)cc1O)c1cccnc1", "GI50": 7.06, "TGI": 81.6},
      {"smiles": "O=C(NNc1cnccn1)c1nc2cc(F)ccc2n2cccc12", "GI50": 2.24, "TGI": "> 62.8"},
      {"smiles": "NCCCOc1cc2ccccc2cc1C(=O)NCCCOc1cc2ccccc2cc1C(=O)Nc1ccc(Cl)cc1O", "GI50": 1.85, "TGI": 3.6},
      {"smiles": "NC(N)=N/N=C(\\N=Nc1ccccc1)c1ccc(Cl)cc1", "GI50": 4.86, "TGI": 19.2},
      {"smiles": "Cc1cc(NCCCCNc2ccnc3cc(Cl)ccc23)nc(Nc2ccc(C(=O)N3CCCCC3)cc2)n1", "GI50": 1.69, "TGI": 3.21},
      {"smiles": "c1ccc2c(c1)c1ccccc1c1ccccc21", "GI50": "> 100", "TGI": "> 100"},
      {"smiles": "Cc1c2c(C(N)=O)nccc2c(C)c2c1c1ccccc1n2Cc1ccccc1", "TGI": 90.4}
    ]},
    {"tested_on": "SK-MEL-2 melanoma", "test": "DTP human tumour cell line panel, 48 h", "units": {"GI50": "µM", "TGI": "µM"}, "values": [
      {"smiles": "COc1ccc(-c2nn(-c3cccc(Cl)c3)cc2-c2nc(N)[nH]c(=O)c2C#N)cc1", "GI50": 3.94, "TGI": 15.8},
      {"smiles": "COc1cc2c3c(n(CCCN(CCO)CCO)c(=O)c2cc1OC)-c1cc2c(cc1C3=O)OCO2", "GI50": 8.79, "TGI": "> 33"},
      {"smiles": "CNCCn1c(=O)c2cc(OC)c(OC)cc2c2cnc3cc4c(cc3c21)OCO4", "GI50": 2.32, "TGI": 4.91},
      {"smiles": "O=C(CCN1CCOCC1)Nc1cccc(-n2cc(-c3ccncc3)c(-c3ccc(Cl)c(O)c3)n2)c1", "GI50": 1.85, "TGI": 6.58}
    ]}
  ]
}
